Data reported in ChEMBL document CHEMBL4368927, “A review on flavones targeting serine/threonine protein kinases for potential anticancer drugs” (Bioorg Med Chem, 2019).

Tests used:
[1] = molecular target: Cyclin-dependent kinase 1 (Homo sapiens, UniProt P06493); experiment: Inhibition of human CDK1
[2] = molecular target: Cyclin-dependent kinase 6 (Homo sapiens, UniProt Q00534); experiment: Inhibition of human CDK6
[3] = molecular target: Cyclin-dependent kinase 4 (Homo sapiens, UniProt P11802); experiment: Inhibition of human CDK4
Sequence of Cyclin-dependent kinase 4 (P11802 whole entry): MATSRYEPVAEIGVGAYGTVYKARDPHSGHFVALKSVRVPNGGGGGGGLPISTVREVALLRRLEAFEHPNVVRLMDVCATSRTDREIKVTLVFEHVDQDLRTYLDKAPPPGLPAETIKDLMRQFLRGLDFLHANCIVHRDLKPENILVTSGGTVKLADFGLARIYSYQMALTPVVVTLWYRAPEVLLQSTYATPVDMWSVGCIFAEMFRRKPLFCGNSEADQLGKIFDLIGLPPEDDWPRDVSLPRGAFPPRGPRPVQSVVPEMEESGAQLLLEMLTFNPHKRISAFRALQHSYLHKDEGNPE

CDK7/Cyclin H/MNAT1 = CDK7/Cyclin H/MNAT1 (Homo sapiens, UniProt P50613); experiment: Inhibition of recombinant human full length C-terminal His6-tagged and N-terminal GST-tagged CDK7/cyclinH/MAT1 expressed in baculovirus Sf21 insect cells after 40 mins in presence of [gamma-32P]ATP by scintillation counting analysis
Sequence of CDK7/Cyclin H/MNAT1 (P51946 whole entry): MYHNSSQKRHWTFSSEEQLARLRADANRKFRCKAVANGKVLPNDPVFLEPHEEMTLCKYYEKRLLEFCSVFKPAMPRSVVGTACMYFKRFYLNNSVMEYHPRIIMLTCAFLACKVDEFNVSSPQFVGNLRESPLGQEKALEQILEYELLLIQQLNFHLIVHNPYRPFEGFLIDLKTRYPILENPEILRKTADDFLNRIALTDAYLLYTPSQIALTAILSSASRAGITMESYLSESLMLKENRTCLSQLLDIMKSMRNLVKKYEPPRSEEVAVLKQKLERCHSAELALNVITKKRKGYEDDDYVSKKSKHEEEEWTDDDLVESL
Sequence of CDK7/Cyclin H/MNAT1 (P50613 whole entry): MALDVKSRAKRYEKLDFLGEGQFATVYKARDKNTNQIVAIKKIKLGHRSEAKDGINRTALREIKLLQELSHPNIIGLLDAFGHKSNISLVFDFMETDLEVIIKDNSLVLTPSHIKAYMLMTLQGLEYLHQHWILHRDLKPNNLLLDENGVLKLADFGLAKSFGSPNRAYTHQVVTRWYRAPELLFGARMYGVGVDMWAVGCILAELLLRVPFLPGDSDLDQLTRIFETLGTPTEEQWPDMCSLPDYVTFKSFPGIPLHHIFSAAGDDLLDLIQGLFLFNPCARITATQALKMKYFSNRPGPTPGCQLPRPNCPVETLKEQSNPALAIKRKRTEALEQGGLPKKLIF
Sequence of CDK7/Cyclin H/MNAT1 (P51948 whole entry, further chain): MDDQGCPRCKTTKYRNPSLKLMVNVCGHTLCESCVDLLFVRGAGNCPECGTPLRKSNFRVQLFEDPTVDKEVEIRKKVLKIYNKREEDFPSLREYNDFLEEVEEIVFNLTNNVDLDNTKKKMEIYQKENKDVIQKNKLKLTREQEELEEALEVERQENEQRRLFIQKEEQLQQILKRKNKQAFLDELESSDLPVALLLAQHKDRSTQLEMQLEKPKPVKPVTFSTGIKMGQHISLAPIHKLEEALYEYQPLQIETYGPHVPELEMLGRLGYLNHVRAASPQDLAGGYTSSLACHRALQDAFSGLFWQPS

[4] = molecular target: Protein kinase C (PKC) (Rattus norvegicus) (UniProt P05696+P68403+P09216+P63319+P09215+Q64617+Q9WTQ0+P09217); experiment: Inhibition of PKC in rat brain homogenate at 50 uM using FKKSFKL-NH2 as substrate preincubated for 10 mins followed by substrate addition and measured after 5 mins in presence of [gamma-32P]ATP by liquid scintillation counting analysis relative to control; format: tissue-based
[5] = molecular target: Serine/threonine-protein kinase pim-1 (Homo sapiens) (UniProt P11309)
Sequence of Serine/threonine-protein kinase pim-1 (Homo sapiens) (P11309 whole entry, looked up): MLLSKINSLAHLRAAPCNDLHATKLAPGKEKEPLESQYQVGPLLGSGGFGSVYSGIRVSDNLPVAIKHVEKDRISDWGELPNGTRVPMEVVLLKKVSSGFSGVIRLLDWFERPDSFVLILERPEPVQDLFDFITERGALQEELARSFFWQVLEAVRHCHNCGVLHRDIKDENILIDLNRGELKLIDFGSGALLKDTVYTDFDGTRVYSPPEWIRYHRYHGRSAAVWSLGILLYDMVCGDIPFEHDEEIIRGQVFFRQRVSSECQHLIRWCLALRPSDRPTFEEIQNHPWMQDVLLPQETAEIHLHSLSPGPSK
Description: Inhibition of PIM1 in human RWPE2 cells assessed as inhibition of cell growth

[6] = Inhibition of protein kinase A (unknown origin); design: species or system Homo sapiens
[7] = Inhibition of CDK6/cyclin D (unknown origin); design: species or system Homo sapiens
[8] = molecular target: Proto-oncogene tyrosine-protein kinase Src (Homo sapiens, UniProt P12931); experiment: Inhibition of pp60 src (unknown origin)
Sequence of Proto-oncogene tyrosine-protein kinase Src (P12931 2-536 limits assumed): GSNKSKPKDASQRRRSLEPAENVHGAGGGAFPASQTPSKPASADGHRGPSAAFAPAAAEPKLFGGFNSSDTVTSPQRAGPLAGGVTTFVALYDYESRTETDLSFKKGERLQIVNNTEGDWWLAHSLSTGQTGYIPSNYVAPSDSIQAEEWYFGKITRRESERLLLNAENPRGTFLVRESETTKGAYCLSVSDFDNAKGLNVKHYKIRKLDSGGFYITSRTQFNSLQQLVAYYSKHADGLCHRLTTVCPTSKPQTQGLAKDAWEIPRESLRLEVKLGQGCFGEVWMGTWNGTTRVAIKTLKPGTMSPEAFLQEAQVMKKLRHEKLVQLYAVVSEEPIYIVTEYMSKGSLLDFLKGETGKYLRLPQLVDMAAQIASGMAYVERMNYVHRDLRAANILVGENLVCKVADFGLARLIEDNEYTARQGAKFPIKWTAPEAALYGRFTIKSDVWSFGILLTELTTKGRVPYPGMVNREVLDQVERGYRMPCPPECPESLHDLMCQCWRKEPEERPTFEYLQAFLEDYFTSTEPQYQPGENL

[9] = molecular target: Mitogen-activated protein kinase 3 (Homo sapiens, UniProt P27361); experiment: Inhibition of Erk-1 (unknown origin)
Sequence of Mitogen-activated protein kinase 3 (P27361 whole entry): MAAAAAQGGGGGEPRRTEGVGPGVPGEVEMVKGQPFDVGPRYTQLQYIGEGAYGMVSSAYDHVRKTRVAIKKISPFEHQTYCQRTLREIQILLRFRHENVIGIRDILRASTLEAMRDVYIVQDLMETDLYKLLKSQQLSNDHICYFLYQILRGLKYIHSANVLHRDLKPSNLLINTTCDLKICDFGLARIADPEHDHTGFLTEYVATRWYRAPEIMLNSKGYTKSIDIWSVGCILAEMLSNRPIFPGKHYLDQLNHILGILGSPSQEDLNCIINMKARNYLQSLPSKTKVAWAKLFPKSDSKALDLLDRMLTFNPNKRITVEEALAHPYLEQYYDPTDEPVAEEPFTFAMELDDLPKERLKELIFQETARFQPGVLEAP

[10] = molecular target: Cyclin-dependent kinase 2/cyclin E1 (Homo sapiens, UniProt P24941); experiment: Inhibition of human CDK2/cyclin E expressed in baculovirus expression system after 30 mins in presence of [gamma-33P]ATP by scintillation counting analysis
HT-29 = experiment: Antiproliferative activity against human HT-29 cells assessed as reduction in [3H]-thymidine incorporation after 48 hrs by liquid scintillation assay; format: functional, cell-based
Protein kinase C (PKC) = experiment: Inhibition of PKC in rat brain homogenate using FKKSFKL-NH2 as substrate preincubated for 10 mins followed by substrate addition and measured after 5 mins in presence of [gamma-32P]ATP by liquid scintillation counting analysis; format: tissue-based

Sequence of Cyclin-dependent kinase 1 (P06493 whole entry): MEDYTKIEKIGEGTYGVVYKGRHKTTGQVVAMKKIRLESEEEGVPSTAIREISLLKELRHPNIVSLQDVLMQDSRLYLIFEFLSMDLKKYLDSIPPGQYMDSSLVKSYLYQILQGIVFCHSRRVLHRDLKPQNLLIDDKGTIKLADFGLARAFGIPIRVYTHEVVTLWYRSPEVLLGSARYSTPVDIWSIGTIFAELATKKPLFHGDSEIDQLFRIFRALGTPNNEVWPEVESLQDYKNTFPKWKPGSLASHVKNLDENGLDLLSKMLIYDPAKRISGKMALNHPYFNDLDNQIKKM
Sequence of Cyclin-dependent kinase 6 (Q00534 whole entry): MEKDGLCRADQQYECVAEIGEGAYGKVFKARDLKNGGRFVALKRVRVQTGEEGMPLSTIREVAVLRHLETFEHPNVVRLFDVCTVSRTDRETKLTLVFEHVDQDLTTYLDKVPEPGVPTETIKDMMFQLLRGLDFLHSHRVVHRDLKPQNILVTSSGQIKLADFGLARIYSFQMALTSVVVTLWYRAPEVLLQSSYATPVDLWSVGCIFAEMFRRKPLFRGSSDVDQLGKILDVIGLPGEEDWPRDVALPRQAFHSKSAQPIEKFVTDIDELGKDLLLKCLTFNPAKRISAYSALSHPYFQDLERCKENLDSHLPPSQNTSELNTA

Compound `CN1CC[C@@H](c2c(O)cc(O)c3c(=O)cc(-c4ccc(C(F)(F)F)cc4Cl)oc23)[C@@H]1CO` [VORUCICLIB] has an IC50 [1] of less than 0.1 µM, an IC50 [2] of less than 0.1 µM and an IC50 [3] of less than 0.1 µM.

For `COc1c(O)cc(O)c2c(=O)cc(-c3ccccc3)oc12` [WOGONIN], the IC50 (CDK7/Cyclin H/MNAT1) was 12.3 µM.

Work on `O=c1c(O)c(-c2ccc(O)c(O)c2)oc2cc(O)cc(O)c12` yielded an inhibition [4] of 64%.

With `O=c1c(O)c(-c2ccc(O)c(O)c2)oc2cc(O)c(O)c(O)c12` the ED50 [5] was 5.5 µM.

Compound `CN1CC[C@H](c2c(O)cc(O)c3c(=O)cc(-c4ccccc4Cl)oc23)[C@H](O)C1` [ALVOCIDIB] has an IC50 [6] of 122 to 145 µM, an IC50 [7] of 0.06 µM and an IC50 [8] of 34 µM. The IC50 [9] was 16 µM.

With `CN1CC[C@H](c2c(O)cc(O)c3c(=O)cc(-c4ccccc4Cl)oc23)[C@H]1CO` the IC50 [10] was 21 µM and the IC50 (HT-29) was 17.9 µM.

Compound `O=c1c(O)c(-c2ccc(O)c(O)c2)oc2cc(O)ccc12` has an inhibition [4] of 85%.

`CN1CC[C@@H](c2c(O)cc(O)c3c(=O)cc(-c4ccc([N+](=O)[O-])cc4Cl)oc23)[C@@H]1CO` gave an IC50 [10] of 1.7 µM and an IC50 (HT-29) of 1.2 µM.

In the case of `CN1CC[C@@H](c2c(O)cc(O)c3c(=O)cc(-c4ccccc4Cl)oc23)[C@@H]1CO`, the IC50 [10] is reported as 2.8 µM and the IC50 (HT-29) is reported as 0.58 µM.

For `O=c1cc(-c2ccc(O)c(O)c2)oc2cc(O)cc(O)c12`, the inhibition [4] was 70%.

With `O=c1c(O)c(-c2cc(O)c(O)c(O)c2)oc2cc(O)cc(O)c12` [MYRICETIN] the IC50 (Protein kinase C (PKC)) was 7.8 µM.
